Assay results: ChEMBL document CHEMBL5543075, “Phenoxytacrine derivatives: Low-toxicity neuroprotectants exerting affinity to ifenprodil-binding site and cholinesterase inhibition” (Eur J Med Chem, 2024)
Active and inactive are the calls of the source. No cut-off for these calls is given here.

Experiments:
[1] = biological target: T1, Glutamate NMDA receptor; GRIN1/GRIN2B (Homo sapiens, UniProt Q05586+Q13224); assay: Inhibition of recombinant human GluN1/GluN2B receptor expressed in HEK293 cells assessed as reduction in glutamate induced current at 1 uM at -60 mV holding potential by electrophysiology assay relative to control; assay type: cell-based
[2] = biological target: T1, Glutamate NMDA receptor; GRIN1/GRIN2B; assay: Inhibition of recombinant human GluN1/GluN2B receptor expressed in HEK293 cells assessed as reduction in glutamate induced current at -20 mV holding potential by electrophysiology assay; assay type: cell-based
[3] = Cytotoxicity against CHO-K1 cells incubated for 24 hrs by MTT assay; assay type: toxicity, cell-based, Cricetulus griseus; conditions: Chinese hamster
[4] = Inhibition of recombinant human GluN1 F113A /GluN2B receptor expressed in HEK293 cells assessed as reduction in glutamate induced current at -60 mV holding potential by electrophysiology assay; assay type: cell-based
[5] = Toxicity in Wistar rat assessed as reduction in breathing at 10 mg/kg, ip; assay type: organism-based; conditions: in vivo
[6] = biological target: T2, Glutamate NMDA receptor; GRIN1/GRIN2A (Homo sapiens, UniProt Q05586+Q12879); assay: Inhibition of recombinant wild type human GluN1/GluN2A receptor expressed in HEK293 cells assessed as reduction in glutamate induced current at -40 mV holding potential by electrophysiology assay; assay type: cell-based
T2 sequence (Q12879 whole entry, other chains not shown): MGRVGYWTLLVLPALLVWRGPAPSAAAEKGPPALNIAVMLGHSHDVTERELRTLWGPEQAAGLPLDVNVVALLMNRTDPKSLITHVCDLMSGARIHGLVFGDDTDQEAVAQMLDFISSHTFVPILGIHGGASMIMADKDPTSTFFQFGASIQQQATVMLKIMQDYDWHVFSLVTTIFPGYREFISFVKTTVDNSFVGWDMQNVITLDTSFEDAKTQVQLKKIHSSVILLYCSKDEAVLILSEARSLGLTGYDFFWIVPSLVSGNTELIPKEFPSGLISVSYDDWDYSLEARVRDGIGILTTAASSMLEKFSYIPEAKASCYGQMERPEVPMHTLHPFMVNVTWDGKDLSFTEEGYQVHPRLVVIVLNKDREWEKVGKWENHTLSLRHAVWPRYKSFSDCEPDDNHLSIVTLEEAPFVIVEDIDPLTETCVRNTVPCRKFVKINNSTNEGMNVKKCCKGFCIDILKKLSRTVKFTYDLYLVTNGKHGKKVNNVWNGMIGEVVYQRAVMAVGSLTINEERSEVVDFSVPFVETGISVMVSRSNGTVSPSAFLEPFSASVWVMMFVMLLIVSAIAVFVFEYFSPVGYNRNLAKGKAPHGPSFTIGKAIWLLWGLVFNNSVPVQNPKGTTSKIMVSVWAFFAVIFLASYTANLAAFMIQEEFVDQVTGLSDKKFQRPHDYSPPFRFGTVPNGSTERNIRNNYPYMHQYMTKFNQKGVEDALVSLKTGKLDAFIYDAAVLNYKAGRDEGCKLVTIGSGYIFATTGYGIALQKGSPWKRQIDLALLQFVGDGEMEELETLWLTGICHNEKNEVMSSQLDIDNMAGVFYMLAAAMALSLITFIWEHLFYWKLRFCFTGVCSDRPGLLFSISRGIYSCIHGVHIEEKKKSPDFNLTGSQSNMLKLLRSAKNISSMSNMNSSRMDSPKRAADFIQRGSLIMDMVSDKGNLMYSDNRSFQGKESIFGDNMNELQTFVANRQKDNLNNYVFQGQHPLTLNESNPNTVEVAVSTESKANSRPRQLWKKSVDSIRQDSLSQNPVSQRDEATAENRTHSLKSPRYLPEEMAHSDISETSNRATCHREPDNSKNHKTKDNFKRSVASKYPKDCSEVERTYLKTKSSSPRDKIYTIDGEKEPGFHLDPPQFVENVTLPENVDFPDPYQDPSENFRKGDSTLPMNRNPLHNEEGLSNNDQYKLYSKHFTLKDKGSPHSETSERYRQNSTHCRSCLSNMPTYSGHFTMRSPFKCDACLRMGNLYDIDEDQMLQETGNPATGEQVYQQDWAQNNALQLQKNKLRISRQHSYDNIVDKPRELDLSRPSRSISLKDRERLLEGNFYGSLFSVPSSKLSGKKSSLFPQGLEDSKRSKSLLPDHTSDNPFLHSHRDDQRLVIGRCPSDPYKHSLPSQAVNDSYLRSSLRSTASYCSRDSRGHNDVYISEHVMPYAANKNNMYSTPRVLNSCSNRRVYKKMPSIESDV

[7] = Inhibition of recombinant human GluN1/GluN2B Q110F mutant receptor expressed in HEK293 cells assessed as reduction in glutamate induced current at -60 mV holding potential by electrophysiology assay; assay type: cell-based
[8] = Inhibition of recombinant human GluN1/GluN2B Q110F mutant receptor expressed in HEK293 cells assessed as reduction in glutamate induced current at -40 mV holding potential by electrophysiology assay; assay type: cell-based
Cholinesterase = Cholinesterase (Homo sapiens, UniProt P06276); assay: Inhibition of human BChE by spectrophotometric Ellman's method
Cholinesterase, sequence (P06276 whole entry): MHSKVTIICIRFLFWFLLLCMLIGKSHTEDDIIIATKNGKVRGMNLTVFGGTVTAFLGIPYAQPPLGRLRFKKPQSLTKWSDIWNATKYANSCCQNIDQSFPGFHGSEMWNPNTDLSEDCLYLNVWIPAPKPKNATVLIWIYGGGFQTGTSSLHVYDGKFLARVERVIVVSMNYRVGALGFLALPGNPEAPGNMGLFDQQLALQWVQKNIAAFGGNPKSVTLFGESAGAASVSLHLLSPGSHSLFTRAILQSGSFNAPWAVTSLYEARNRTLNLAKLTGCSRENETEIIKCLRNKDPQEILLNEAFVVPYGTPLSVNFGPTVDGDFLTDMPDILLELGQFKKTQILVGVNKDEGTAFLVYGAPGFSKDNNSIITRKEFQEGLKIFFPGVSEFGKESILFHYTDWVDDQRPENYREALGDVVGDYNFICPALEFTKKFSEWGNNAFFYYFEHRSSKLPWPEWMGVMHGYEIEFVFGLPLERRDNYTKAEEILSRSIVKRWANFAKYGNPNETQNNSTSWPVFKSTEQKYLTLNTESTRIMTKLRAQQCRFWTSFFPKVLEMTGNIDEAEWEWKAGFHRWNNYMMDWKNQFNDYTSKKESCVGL

[9] = biological target: T2, Glutamate NMDA receptor; GRIN1/GRIN2A; assay: Inhibition of recombinant wild type human GluN1/GluN2A receptor expressed in HEK293 cells assessed as reduction in glutamate induced current at -60 mV holding potential by electrophysiology assay; assay type: cell-based
Rattus norvegicus [10] = assay: Antialzheimer activity against scopolamine-induced cognitive impairment in Wistar rat assessed as increase in number of platform crossing at 5 mg/kg, ip measured upto 4 days by morris water maze test; assay type: functional, organism-based; conditions: time <= 4.0 day
in vitro [11] = conditions: human, liver microsomes
Description: Metabolic stability in human liver microsomes assessed as intrinsic clearance at 3 uM measured upto 45 min in presence of NADPH regenerating system by LC-MS analysis

[12] = Inhibition of recombinant human GluN1 Y109C /GluN2B receptor expressed in HEK293 cells assessed as reduction in glutamate induced current at -60 mV holding potential by electrophysiology assay; assay type: cell-based
[13] = Inhibition of recombinant human GluN1 deltaATD/GluN2B receptor expressed in HEK293 cells assessed as reduction in glutamate induced current at -60 mV holding potential by electrophysiology assay; assay type: cell-based
[14] = Toxicity in Wistar rat assessed as loss of activity at 10 mg/kg, ip; assay type: organism-based; conditions: in vivo
[15] = Inhibition of recombinant human GluN1 F113A /GluN2B receptor expressed in HEK293 cells assessed as reduction in glutamate induced current at -40 mV holding potential by electrophysiology assay; assay type: cell-based
[16] = biological target: T1, Glutamate NMDA receptor; GRIN1/GRIN2B; assay: Inhibition of recombinant wild type human GluN1/GluN2B receptor expressed in HEK293 cells assessed as reduction in glutamate induced current at -60 mV holding potential by electrophysiology assay; assay type: cell-based
in vitro [17] = conditions: human, liver microsomes; remark: listed apart in the source
Description: Metabolic stability in human liver microsomes assessed as half life at 3 uM measured upto 45 min in presence of NADPH regenerating system by LC-MS analysis

[18] = Inhibition of recombinant human GluN1/GluN2B F114A mutant receptor expressed in HEK293 cells assessed as reduction in glutamate induced current at -40 mV holding potential by electrophysiology assay; assay type: cell-based
Rattus norvegicus [19] = assay: Antipsychotic activity in Wistar rat assessed as effect on locomotor activity at 5 mg/kg, ip measured after 10 mins by open field test; assay type: functional, organism-based
[20] = Toxicity in Wistar rat assessed as no observed adverse effect level (NOAEL) at 5 mg/kg, ip; assay type: organism-based; conditions: in vivo
Rattus norvegicus [21] = assay: Antipsychotic activity in Wistar rat assessed as effect on pre-pulse inhibition of acoustic startle response at 5 mg/kg, ip measured after 10 mins by pre-pulse inhibition test; assay type: functional, organism-based
Rattus norvegicus [22] = assay: Antialzheimer activity against scopolamine-induced cognitive impairment in Wistar rat assessed as decrease in mean distance from platform at 5 mg/kg, ip measured upto 4 days by morris water maze test (reference value: 51.7 +/-1.5 cm); assay type: functional; conditions: time <= 4 day
[23] = Inhibition of recombinant human GluN1 Y109C /GluN2B receptor expressed in HEK293 cells assessed as reduction in glutamate induced current at -40 mV holding potential by electrophysiology assay; assay type: cell-based
Acetylcholinesterase = Acetylcholinesterase (Homo sapiens, UniProt P22303); assay: Inhibition of human AChE by spectrophotometric Ellman's method
Acetylcholinesterase, sequence (P22303 whole entry): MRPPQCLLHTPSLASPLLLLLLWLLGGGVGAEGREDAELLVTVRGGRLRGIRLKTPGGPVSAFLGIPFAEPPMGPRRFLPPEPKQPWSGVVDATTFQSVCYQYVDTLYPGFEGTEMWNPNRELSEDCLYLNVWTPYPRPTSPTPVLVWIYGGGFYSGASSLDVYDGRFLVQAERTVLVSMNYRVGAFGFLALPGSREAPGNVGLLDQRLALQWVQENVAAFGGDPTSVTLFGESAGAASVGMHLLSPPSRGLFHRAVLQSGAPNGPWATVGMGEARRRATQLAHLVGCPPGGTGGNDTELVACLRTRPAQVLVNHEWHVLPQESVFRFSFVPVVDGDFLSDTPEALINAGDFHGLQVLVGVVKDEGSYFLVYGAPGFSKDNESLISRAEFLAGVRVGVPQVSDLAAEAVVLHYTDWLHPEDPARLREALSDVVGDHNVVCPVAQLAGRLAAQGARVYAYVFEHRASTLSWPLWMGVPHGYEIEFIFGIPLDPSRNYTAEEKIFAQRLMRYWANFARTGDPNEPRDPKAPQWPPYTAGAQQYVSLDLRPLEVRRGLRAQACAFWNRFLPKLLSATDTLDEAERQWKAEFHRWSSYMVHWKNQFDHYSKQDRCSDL

[24] = Inhibition of recombinant human GluN1 deltaATD/GluN2B receptor expressed in HEK293 cells assessed as reduction in glutamate induced current at -40 mV holding potential by electrophysiology assay; assay type: cell-based
[25] = Inhibition of recombinant human GluN1/GluN2B F114A mutant receptor expressed in HEK293 cells assessed as reduction in glutamate induced current at -60 mV holding potential by electrophysiology assay; assay type: cell-based
[26] = biological target: T1, Glutamate NMDA receptor; GRIN1/GRIN2B; assay: Inhibition of recombinant wild type human GluN1/GluN2B receptor expressed in HEK293 cells assessed as reduction in glutamate induced current at -40 mV holding potential by electrophysiology assay; assay type: cell-based
Rattus norvegicus [27] = assay: Antialzheimer activity against scopolamine-induced cognitive impairment in Wistar rat assessed as decrease in latency to reach platform at 5 mg/kg, ip measured upto 4 days by morris water maze test; assay type: functional, organism-based; conditions: time <= 4.0 day
Rattus norvegicus [28] = assay: Antipsychotic activity in Wistar rat assessed as effect on pre-pulse inhibition of acoustic startle response at 2 mg/kg, ip measured after 10 mins by pre-pulse inhibition test; assay type: functional, organism-based
Hippocampal neurone = assay: Neuroprotective activity against NMDA-induced cell injury in rat Hippocampal neuron cells assessed as decrease in damage score at 30 uM measured after 24 hrs by FJB staining based microscopy; assay type: functional
Rattus norvegicus [29] = assay: Antialzheimer activity against scopolamine-induced cognitive impairment in Wistar rat assessed as decrease in latency to reach platform at 2 mg/kg, ip measured upto 4 days by morris water maze test; assay type: functional, organism-based; conditions: time <= 4.0 day
Rattus norvegicus [30] = assay: Antipsychotic activity in Wistar rat assessed as effect on locomotor activity at 2 mg/kg, ip measured after 10 mins by open field test; assay type: functional, organism-based
[31] = Toxicity in Wistar rat assessed as no observed adverse effect level (NOAEL) at 20 mg/kg, ip measured after 10 to 15 mins; assay type: organism-based; conditions: in vivo, time 10-15 min
[32] = Toxicity in Wistar rat assessed as no observed adverse effect level (NOAEL) at 10 mg/kg, ip; assay type: organism-based; conditions: in vivo
Rattus norvegicus [33] = assay: Antipsychotic activity in Wistar rat assessed as effect on locomotor activity at 0.2 mg/kg, ip measured after 10 mins by open field test; assay type: functional, organism-based
Rattus norvegicus [34] = assay: Antipsychotic activity in Wistar rat assessed as effect on pre-pulse inhibition of acoustic startle response at 0.3 mg/kg, ip measured after 10 mins by pre-pulse inhibition test; assay type: functional, organism-based
Rattus norvegicus [35] = assay: Antialzheimer activity against scopolamine-induced cognitive impairment in Wistar rat assessed as decrease in mean distance from platform at 2 mg/kg, ip measured upto 4 days by morris water maze test (reference value: 51.7 +/-1.5 cm); assay type: functional; conditions: time <= 4 day
Rattus norvegicus [36] = assay: Antialzheimer activity against scopolamine-induced cognitive impairment in Wistar rat assessed as increase in number of platform crossing at 2 mg/kg, ip measured upto 4 days by morris water maze test; assay type: functional, organism-based; conditions: time <= 4.0 day

Nc1c2c(nc3ccc(Oc4ccccc4)cc13)CCCC2
inhibition [1]: 33.1%
IC50 [2]: ~2 µM
IC50 at 24 h [3]: 31 µM

COc1ccccc1Oc1ccc2nc3c(c(N)c2c1)CCCC3.Cl
IC50 [4]: 1.7 µM
Activity [5]: Toxic
IC50 [6]: 43.8 µM
IC50 [7]: 9.5 µM
IC50 [8]: 10.3 µM
IC50 (Cholinesterase): 0.44 µM
IC50 [9]: 10.1 µM
Activity (Rattus norvegicus [10]): inactive
microsomal CLint at 0.75 h, 3 µM (in vitro [11]): 8.61 µL/min/mg
IC50 [12]: 9.5 µM
IC50 [13]: 11.1 µM
Activity [14]: Toxic
IC50 [15]: 2.1 µM
IC50 [16]: 3.6 µM
half-life at 0.75 h, 3 µM (in vitro [17]): 2.69 h
IC50 [18]: 31.9 µM
Activity (Rattus norvegicus [19]): inactive
Activity [20]: Non-Toxic
inhibition [1]: 25.7%
Activity (Rattus norvegicus [21]): inactive
Activity (Rattus norvegicus [22]): 78.7 cm
IC50 [23]: 8.4 µM
IC50 at 24 h [3]: 43 µM
IC50 (Acetylcholinesterase): 0.84 µM
IC50 [24]: 47.2 µM
IC50 [25]: 9.4 µM
IC50 [26]: 6.8 µM
Activity (Rattus norvegicus [27]): inactive

COc1ccccc1Oc1ccc2nc3c(c(N)c2c1)CCC3.Cl
Activity (Rattus norvegicus [28]): inactive
IC50 (Cholinesterase): 5.48 µM
IC50 [9]: 5.1 µM
Activity (Hippocampal neurone): Active
microsomal CLint at 0.75 h, 3 µM (in vitro [11]): 20 µL/min/mg
IC50 [13]: 5.2 µM
IC50 [16]: 2.4 µM
half-life at 0.75 h, 3 µM (in vitro [17]): 1.16 h
inhibition [1]: 35%
Activity (Rattus norvegicus [29]): Active
Activity (Rattus norvegicus [30]): inactive
Activity [31]: Toxic
IC50 at 24 h [3]: 68 µM
Activity [32]: Non-Toxic
IC50 (Acetylcholinesterase): 8.52 µM

Nc1c2c(nc3ccc(Oc4ccc(Cl)cc4)cc13)CCCC2
IC50 (Cholinesterase): 3.32 µM
inhibition [1]: 14.2%
IC50 at 24 h [3]: 12 µM
IC50 (Acetylcholinesterase): 2.92 µM

C[C@]12N[C@H](Cc3ccccc31)c1ccccc12
Activity (Rattus norvegicus [33]): Active
Activity (Rattus norvegicus [34]): Active

Cc1ccccc1Oc1ccc2nc3c(c(N)c2c1)CCC3.Cl
inhibition [1]: 16.6%
Activity (Rattus norvegicus [35]): 59.5 cm
IC50 at 24 h [3]: 78 µM
IC50 (Acetylcholinesterase): 28.2 µM
Activity (Rattus norvegicus [36]): Active

CC(=O)c1ccc(Oc2ccc3nc4c(c(N)c3c2)CCC4)cc1
IC50 (Cholinesterase): 16.5 µM
inhibition [1]: 9.5%
IC50 at 24 h [3]: 69 µM
IC50 (Acetylcholinesterase): 5.76 µM

CC(C)(C)c1ccc(Oc2ccc3nc4c(c(N)c3c2)CCCC4)cc1
IC50 (Cholinesterase): 6.61 µM
inhibition [1]: 16%
IC50 at 24 h [3]: 5.1 µM
IC50 (Acetylcholinesterase): 1.96 µM

COc1ccc(Oc2ccc3nc4c(c(N)c3c2)CCCC4)cc1
IC50 (Cholinesterase): 7.26 µM
inhibition [1]: 33.2%
IC50 at 24 h [3]: 26 µM
IC50 (Acetylcholinesterase): 2.9 µM

Cc1ccc(Oc2ccc3nc4c(c(N)c3c2)CCCC4)cc1
IC50 (Cholinesterase): 1.95 µM
inhibition [1]: 18%
IC50 at 24 h [3]: 20 µM
IC50 (Acetylcholinesterase): 3.29 µM

Nc1c2c(nc3ccc(Oc4ccccc4)cc13)CCCCC2
IC50 (Cholinesterase): 1.4 µM
inhibition [1]: 34.9%
IC50 at 24 h [3]: 38 µM
IC50 (Acetylcholinesterase): 5.36 µM

Cc1cc(C)cc(Oc2ccc3nc4c(c(N)c3c2)CCCCC4)c1
IC50 (Cholinesterase): 5.27 µM
inhibition [1]: 7.8%
IC50 at 24 h [3]: 30 µM
IC50 (Acetylcholinesterase): 0.99 µM

Cc1ccccc1Oc1ccc2nc3c(c(N)c2c1)CCCC3
IC50 (Cholinesterase): 4.15 µM
inhibition [1]: 19.3%
IC50 at 24 h [3]: 25 µM
IC50 (Acetylcholinesterase): 3.78 µM
